# Results reported in ChEMBL document CHEMBL1154502, “Small, non-peptide C5a receptor antagonists: part 2” (Bioorg Med Chem Lett, 2008).
# Columns and labels:
# [1] = target: T1, C5a anaphylatoxin chemotactic receptor 1 (Homo sapiens, UniProt P21730); assay: Displacement of [125I]C5a from C5a receptor in cAMP differentiated human U937 cells by filtration assay; format: cell-based, U-937
# T1 sequence (P21730 whole entry): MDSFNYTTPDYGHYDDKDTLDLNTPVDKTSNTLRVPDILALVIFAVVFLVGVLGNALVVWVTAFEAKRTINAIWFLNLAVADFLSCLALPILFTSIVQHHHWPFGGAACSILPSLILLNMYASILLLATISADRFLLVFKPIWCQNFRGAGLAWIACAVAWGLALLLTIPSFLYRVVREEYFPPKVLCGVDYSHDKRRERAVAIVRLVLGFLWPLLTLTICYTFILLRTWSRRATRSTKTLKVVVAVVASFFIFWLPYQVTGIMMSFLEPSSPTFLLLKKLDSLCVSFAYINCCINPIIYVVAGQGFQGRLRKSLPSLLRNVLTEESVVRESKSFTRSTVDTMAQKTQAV
# [2] = target: T1, C5a anaphylatoxin chemotactic receptor 1; assay: Antagonist activity at C5a receptor assessed as inhibition of C5a-induced elastase release in human neutrophils during degranulation preincubated 5 mins prior to C5a challenge using p-nitroanilide as substrate; format: functional
# [3] = Protein binding in human plasma; format: ADME, cell-free; conditions: read-out: PPB (converted)
# [4] = target: T2, C5a anaphylatoxin chemotactic receptor 1 (Homo sapiens) (UniProt P21730); assay: Antagonist activity at C5a receptor assessed as free drug level required to induce 10-fold shift in C5a-stimulated CD11b upregulation in heparinised human whole blood preincubated 1 min prior to C5a challenge by dose-response curve analysis; format: functional, tissue-based
# T2 sequence (whole entry): T1 sequence (P21730 whole entry)
# [5] = target: T2, C5a anaphylatoxin chemotactic receptor 1 (Homo sapiens); assay: Binding affinity to C5a receptor assessed as total drug level required for translation of C5a-induced CD11b upregulation in heparinised human whole blood preincubated 1 min prior to C5a challenge by dose-response curve analysis; format: tissue-based
# [6] = Octanol-neutral buffer distribution coefficient, log D at pH 7.4; format: physicochemical
# [7] = Dissociation constant, pKa of the compound; format: physicochemical
# [8] = target: T2, C5a anaphylatoxin chemotactic receptor 1 (Homo sapiens); assay: Antagonist activity at C5a receptor assessed as total drug level required to induce 10-fold shift in C5a-stimulated CD11b upregulation in heparinised human whole blood preincubated 1 min prior to C5a challenge by dose-response curve analysis; format: functional, tissue-based
# [9] = target: T2, C5a anaphylatoxin chemotactic receptor 1 (Homo sapiens); assay: Binding affinity to C5a receptor assessed as free drug level required for translation of C5a-induced CD11b upregulation in heparinised human whole blood preincubated 1 min prior to C5a challenge by dose-response curve analysis; format: tissue-based
# [10] = Lipophilicity, log D of the compound; format: physicochemical; conditions: octanol/water
logD [6],SMILES,IC50 [1] [nM],IC50 [2] [nM],further results
–,CC(=O)C(Cc1ccc(Cl)cc1)N(C(=O)c1csc2ccccc12)C1CCC2(CC1)OCCO2 (racemic),45,–,–
–,CCc1ccccc1C(=O)N(C1CCC2(CC1)OCCO2)C(Cc1ccc(Cl)cc1)C(=O)O (racemic),350,–,–
–,CCOC(=O)C(Cc1ccc(Cl)cc1)N(C(=O)c1cccc2ccccc12)C1CCC2(CC1)OCCO2 (racemic),3,32,–
–,Clc1ccc(CC2CN=C(c3csc4ccccc34)N2C2CCC3(CC2)OCCO3)cc1 (centres undefined),> 1000,–,–
> 5,CCc1ccccc1C(=O)N(C1CCC2(CC1)OCCO2)C(Cc1ccc(Cl)cc1)CN(C)C (racemic),27,25,fraction unbound [3]: 0.004; Activity [4]: 17 nM; Activity [5]: 178 nM; pKa [7]: 7.4; Activity [8]: 4.8 µM; Activity [9]: 0.63 nM
> 5,CCc1ccccc1C(=O)N(C1CCC2(CC1)OCCO2)C(Cc1ccc(Cl)cc1)c1noc(C)n1 (racemic),8,40,–
3.4,CCc1ccccc1C(=O)N(C1CCC2(CC1)OCCO2)[C@H](CCN1CCOCC1)Cc1ccc(Cl)cc1,200,–,fraction unbound [3]: 0.027; Activity [4]: 119 nM; Activity [5]: 22 nM; Activity [8]: 4.4 µM; Activity [9]: 0.6 nM
–,CCc1ccccc1C(=O)N(C1CCC2(CC1)OCCO2)[C@H](CCN(C)C)Cc1ccc(Cl)cc1,> 1000,–,–
–,COC(=O)C(Cc1ccc(Cl)cc1)N(C(=O)c1csc2ccccc12)C1CCC2(CC1)OCCO2 (racemic),15,172,–
4,COc1cccc(-c2ncc(Cc3ccc(Cl)cc3)n2C2CCC3(CC2)OCCO3)c1,> 1000,–,–
3.3,CN(C)Cc1ccccc1C(=O)N(CCc1ccc(Cl)cc1)C1CCC2(CC1)OCCO2,500,–,fraction unbound [3]: 0.004; Activity [4]: > 40 nM; pKa [7]: 8.4; Activity [8]: > 10 µM
> 5,Clc1ccc2nc(-c3csc4ccccc34)n(C3CCC4(CC3)OCCO4)c2c1Cl,790,–,–
–,O=C(Nc1ccc(F)cc1F)N1CCC(N(CCc2ccc(Cl)cc2)C(=O)c2csc3ccccc23)CC1,–,–,logD [10]: < 4
–,COCC(Cc1ccc(Cl)cc1)N(C(=O)c1csc2ccccc12)C1CCC2(CC1)OCCO2 (racemic),12,27,–
–,O=C(c1csc2ccccc12)N(C1CCC2(CC1)OCCO2)C(CO)Cc1ccc(Cl)cc1 (racemic),> 1000,–,–
> 4,Clc1ccc(Cc2cnc(-c3csc4ccccc34)n2C2CCC3(CC2)OCCO3)cc1,500,–,–
–,Clc1ccc(Cc2nnc(-c3cccc4ccccc34)n2C2CCC3(CC2)OCCO3)cc1,> 1000,–,–
4.6,Cc1nc(-c2csc3ccccc23)n(C2CCC3(CC2)OCCO3)c1Cc1ccc(Cl)cc1,90,–,–
–,c1ccc2c(-c3ncc(CC4CCCCC4)n3C3CCC4(CC3)OCCO4)csc2c1,47,850,–
–,Clc1cccc2nc(-c3csc4ccccc34)n(C3CCC4(CC3)OCCO4)c12,325,–,–
–,Clc1ccc(Cc2cnc(-c3cccc4ccccc34)n2C2CCC3(CC2)OCCO3)cc1,90,877,–
4.6,CN(C)CC(Cc1ccc(Cl)cc1)N(C(=O)c1cccc2ccccc12)C1CCC2(CC1)OCCO2 (racemic),13,22,–
